Results: patent US20210127675A1, “METHOD FOR C[…]-TYPE MULTIDRUG RESISTANT PLANT DISEASES” (priority 2017, published 2021)

How the values were obtained:
[1] = tested on: wheat Septoria leaf blotch fungus (Zymoseptoria tritici); experiment: Control test against efflux type multidrug resistant wheat Septoria leaf blotch fungus (growth in PDB, absorbance at 600 nm); type: cell-based; details: for EC50 value ratio: EC50 against efflux type multidrug resistant strain / EC50 against wild-type strain; for EC50 value, Efflux type multidrug resistant fungus strain: efflux type multidrug resistant fungus strain St 106-6; for EC50 value, Efflux type multidrug resistant fungus strain / EC50 value, Wild-type fungus strain: 18° C., 4 days
Protocol: Control test against Efflux type multidrug resistant wheat Septoria leaf blotch fungus (Zymoseptoria tritici)
Each of the present compound (1) and tolnaftrate was diluted with dimethyl sulfoxide to a prescribed concentration thereof, respectively. Each of the chemical solutions comprising the respective testing compound was dispensed into a titer plate (with 96 wells) in the amount of 1 μL. Thereto was then dispensed 150 μL of a potato dextrose broth (PDB culture media) to which each conidia of wheat Septoria leaf blotch fungus (efflux type multidrug resistant fungus strains) (fungus strain name: St 106-6 as in-house management codes) or wild-type fungus strain, respectively, was inoculated in advance. The plate was cultured at 18° C. for 4 days, thereby allowing each wheat Septoria leaf blotch fungus to undergo proliferation, and the absorbance at 600 nm of each well of the titer plate was then measured to determine a degree of growth of the wheat Septoria leaf blotch fungus (treated group). On the other hand, each of the groups where the wild-type fungus strain or the efflux type multidrug resistant wheat Septoria leaf blotch fungus strain was grown except that the chemical solution was replaced with dimethyl sulfoxide were made non-treated group, respectively, and then the degree of growth thereof was examined (non-treated group).
The efficacy was calculated from the degree of the growth by the below-mentioned “Equation 1”, and then each […] value of the testing compound, respectively against the efflux type multidrug resistant fungus strains and the wild-type fungus strain was calculated. Next, as shown in the below-mentioned “Equation 2”, an EC50 value ratio was calculated by dividing an EC50 value against the efflux type multidrug resistant fungus strains by an EC50 value against the wild-type fungus strain.
(§1) Efficacy=100×(X−Y)/X “Equation 1” • X: Degree of growth of fungus in non-treated group • Y: Degree of growth of fungus in treated group
(§2) EC50 value ratio=EC50 value against efflux type multidrug resistant fungus strain/EC50 value against wild-type fungus strain “Equation 2”

[2] = tested on: grapes gray mold fungus (Botrytis cinerea); experiment: Control test against efflux type multidrug resistant grapes gray mold fungus (growth in PDB, absorbance at 600 nm); type: cell-based; details: for EC50 value ratio 1: EC50 against resistant strain 1 / EC50 against wild-type strain; for EC50 value ratio 2: EC50 against resistant strain 2 / EC50 against wild-type strain; for EC50 value ratio 3: EC50 against resistant strain 3 / EC50 against wild-type strain; for EC50 value, Efflux type multidrug resistant fungus strain 1: strain 1: ABC transporter-overexpressing (Bc-56, NITE BP-02676); for EC50 value, Efflux type multidrug resistant fungus strain 1 / EC50 value, Efflux type multidrug resistant fungus strain 2 / EC50 value, Efflux type multidrug resistant fungus strain 3 / EC50 value, Wild-type fungus strain: 18° C., 2 days; for EC50 value, Efflux type multidrug resistant fungus strain 2: strain 2: MFS transporter-overexpressing (Bc-107, NITE BP-02678); for EC50 value, Efflux type multidrug resistant fungus strain 3: strain 3: ABC transporter and MFS transporter-overexpressing (Bc-103, NITE BP-02677)
Protocol: as §1, §2
Control Test Against Efflux Type Multidrug Resistant Grapes Gray Mold Fungus (Botrytis cinerea)
Each of the present compound (1), fludioxonil and tolnaftrate was diluted with dimethyl sulfoxide to a prescribed concentration thereof, respectively. Each of the chemical solutions comprising the respective testing compound was dispensed into a titer plate (with 96 wells) in the amount of 1 μL. Thereto was then dispensed 150 μL of a potato dextrose broth (PDB culture media) to which each conidia of grapes gray mold fungi, that is, efflux type multidrug resistant fungus strains (specifically, efflux type multidrug resistant fungus strain 1: ABC transporter-overexpressing fungus strain (fungus strain name: NITE accession number (NITE BP-02676), in-house management codes (Bc-56)); efflux type multidrug resistant fungus strain 2: MFS transporter-overexpressing fungus strain (fungus strain name: NITE accession number (NITE BP-02678), in-house management codes (Bc-107)); and efflux type multidrug resistant fungus strain 3: ABC transporter and MFS transporter-overexpressing fungus strain (fungus strain name: NITE accession number (NITE BP-02677), in-house management codes (Bc-103))) or wild-type fungus strain, respectively, was inoculated in advance. The plate was cultured at 18° C. for 2 days, thereby allowing each grapes gray mold fungus to undergo proliferation, and the absorbance at 600 nm of each well of the titer plate was then measured to determine a degree of growth of each of the grapes gray mold fungi (treated group). On the other hand, each of the groups where the wild-type fungus strain or the efflux type multidrug resistant grapes gray mold fungus strains was grown except that the chemical solution was replaced with dimethyl sulfoxide were made non-treated group, respectively, and then the degree of the growth thereof was examined (non-treated group).
The efficacy was calculated from the degree of the growth by the below-mentioned “Equation 1”, and then each EC50 value of the testing compound, respectively against the efflux type multidrug resistant fungus strains and the wild-type fungus strain was calculated. Also, an EC50 value ratio was calculated by the above-mentioned “Equation 2”.

Structure (SMILES)	EC50 value ratio [1]	EC50 value, Efflux type multidrug resistant fungus strain [1]	EC50 value, Wild-type fungus strain [1]	EC50 value ratio 1 [2]	EC50 value ratio 2 [2]	EC50 value ratio 3 [2]	EC50 value, Efflux type multidrug resistant fungus strain 1 [2]	EC50 value, Efflux type multidrug resistant fungus strain 2 [2]	EC50 value, Efflux type multidrug resistant fungus strain 3 [2]	EC50 value, Wild-type fungus strain [2]	EC50 value ratio ([1]; listed as tolnaftate)	EC50 value ratio 1 ([2]; listed as tolnaftate)	EC50 value ratio 2 ([2]; listed as tolnaftate)	EC50 value ratio 3 ([2]; listed as tolnaftate)
Cc1nn(C)c(Nc2c(F)cccc2Cl)c1-c1ccc(F)cc1Br [Present compound (1)]	1.1	0.052 ppm	0.048 ppm	1.7	1.6	1.1	0.11 ppm	0.11 ppm	0.072 ppm	0.067 ppm	–	–	–	–
N#Cc1c[nH]cc1-c1cccc2c1OC(F)(F)O2 [Fludioxonil]	–	–	–	23	14	43	0.19 ppm	0.12 ppm	0.36 ppm	0.0085 ppm	–	–	–	–
Cc1cccc(N(C)C(=S)Oc2ccc3ccccc3c2)c1 [Tolnaftate]	>19	>10 ppm	0.51 ppm	>4.5	>4.5	>4.5	>10 ppm	>10 ppm	>10 ppm	2.2 ppm	19	more than 4.5	more than 4.5	more than 4.5
